Measurements taken from patent US20250295639A1, “METHODS FOR TREATING HEART DISEASES” (Cytokinetics, Incorporated, priority 2024, published 2025).

Experiments:
[1] = tested on: patients with symptomatic oHCM; test: SEQUOIA-HCM cardiovascular magnetic resonance (CMR) substudy; assay type: in vivo, human
Excerpt: A further exploratory objective of this trial was to evaluate the effect of aficamten on left ventricular mass, function, and structure by cardiac magnetic resonance (CMR) imaging, as determined by changes from baseline to Week 24 in CMR measurements of left ventricular (LV) mass index, LVEF, septal and free wall thickness, left […] volume index, LVESV, and LVEDV. Cardiac Magnetic Resonance. A CMR imaging sub-study assessed the effects of administration of aficamten dosing on cardiac morphology, function, and fibrosis in approximately 40 oHCM patients who were eligible and consented to participate. CMR was performed during screening period and Week 24. […] Effect of Aficamten on Cardiac Structure and Function in Patients with Obstructive Hypertrophic Cardiomyopathy. For some patients with HCM, adverse remodeling of cardiac structure and function occur over time and are associated with increased risk of adverse events, including heart failure, sudden death and atrial fibrillation. Eligible participants enrolled in SEQUOIA-HCM (the study of Example 8), were offered enrolment in the cardiovascular magnetic resonance (CMR) substudy with CMR performed at baseline and at Week 24. Image analysis was performed in a blinded fashion by a core laboratory.

[2] = tested on: patients with symptomatic obstructive HCM (oHCM); test: Phase 2 dose finding clinical trial of aficamten in symptomatic oHCM (10 weeks, Cohort 1 and Cohort 2); assay type: in vivo, human
Excerpt: Overall, the incidence of adverse events was similar between treatment arms. […] No new cases of atrial fibrillation were reported by the investigators. In this dose-range finding trial, one patient experienced a transient decrease in left ventricular ejection fraction (LVEF) that required dose adjustment but not dose interruption. […] A multi-center, randomized, placebo-controlled, double-blind, dose finding phase 2 clinical trial of aficamten in patients with symptomatic obstructive HCM (oHCM) was conducted and described as Example 2 in WO 2024/031016 and in U.S. Patent Publication US-2024-0115554-A1, the disclosures of which are incorporated by reference herein.

[3] = CMR Cohort N = 57 (Aficamten N = 25), Baseline
[4] = CMR Cohort N = 57 (Aficamten N = 25), Week 24
[5] = CMR Measurements, CMR Cohort N = 57 (Aficamten N = 25), Baseline
[6] = CMR Measurements, CMR Cohort N = 57 (Aficamten N = 25), Week 24
[7] = CMR Measurements, CMR Cohort N = 57, vs placebo
[8] = Echo Measurements, CMR Cohort N = 57 (Aficamten N = 25), Baseline
[9] = Echo Measurements, CMR Cohort N = 57 (Aficamten N = 25), Week 24
[10] = Echo Measurements, CMR Cohort N = 57, vs placebo
[11] = baseline to week 24, vs placebo

CCc1nc(-c2ccc3c(c2)CC[C@H]3NC(=O)c2cnn(C)c2)no1 [aficamten, (R)—N-(5-(5-ethyl-1,2,4-oxadiazol-3-yl)-2,3-dihydro-1H-inden-1-yl)-1-methyl-1H-pyrazole-4-carboxamide]
LGE (% of LV mass) (CMR) ([1]; Baseline, N = 21): 2.0 % of LV mass
LGE Mass (CMR) ([1]; Baseline, N = 21): 3.2 g
Mitral Regurgitation Fraction (CMR) ([1]; Baseline, N = 21): 24%
Mitral Regurgitation Volume (CMR) ([1]; Baseline, N = 21): 22 mL
NT-proBNP, median ([1]; Baseline, N = 21): 708 pg/mL
NYHA Class II, patients ([1]; Baseline, N = 21): 67%
NYHA Class III, patients ([1]; Baseline, N = 21): 33%
Absolute myocyte mass index (CMR) ([1]; Baseline, N = 21, mean ± SD): 84 ± 25 g/m^2
Echo LVOT Gradient at Rest ([1]; Baseline, N = 21, mean ± SD): 55 ± 32 mm Hg
Echo LVOT Gradient with Valsalva ([1]; Baseline, N = 21, mean ± SD): 85 ± 45 mm Hg
LA Volume Index (CMR) ([1]; Baseline, N = 21, mean ± SD): 68 ± 19 mL/m^2
LV Ejection Fraction (CMR) ([1]; Baseline, N = 21, mean ± SD): 77.4 ± 5.6%
LV End Diastolic Volume Index (CMR) ([1]; Baseline, N = 21, mean ± SD): 67 ± 15 mL/m^2
LV End Systolic Volume Index (CMR) ([1]; Baseline, N = 21, mean ± SD): 15.3 ± 5.9 mL/m^2
LV Extracellular Volume Fraction (CMR) ([1]; Baseline, N = 21, mean ± SD): 26.7 ± 2.7%
LV Mass Index (CMR) ([1]; Baseline, N = 21, mean ± SD): 113 ± 33 g/m^2
LV Maximal Wall Thickness (CMR) ([1]; Baseline, N = 21, mean ± SD): 19.3 ± 4.3 mm
LV Native T1 (CMR) ([1]; Baseline, N = 21, mean ± SD): 1066 ± 121 ms
LV extracellular volume mass index (CMR) ([1]; Baseline, N = 21, mean ± SD): 31 ± 10 %/g/m^2
Peak oxygen consumption, pVO2 ([1]; Baseline, N = 21, mean ± SD): 20.1 ± 4.4 mL/kg/min
NT-proBNP, median [1, 3]: 708 pg/mL
Peak oxygen consumption, pVO2 [1, 3]: 19.8 ± 4.7 mL/kg/min
Improvement in NYHA by ≥1 FC, n (%) [1, 4]: 15 (60.0) n (%)
NT-proBNP, median [1, 4]: 81 pg/mL
Peak oxygen consumption, pVO2 [1, 4]: 21.0 ± 4.9 mL/kg/min
Improvement in NYHA by ≥1 FC, Treatment Effect, OR ([1]; CMR Cohort N = 57, Week 24, vs placebo): OR 3.00
NT-proBNP, Treatment Effect ([1]; CMR Cohort N = 57, vs placebo): -85 pg/mL
Peak oxygen consumption, pVO2, Treatment Effect ([1]; CMR Cohort N = 57, vs placebo): 1.2 mL/kg/min
LA Volume Index [1, 5]: 68 ± 19 mL/m^2
LV Ejection Fraction [1, 5]: 77.4 ± 5.6%
LV Mass Index [1, 5]: 113 ± 33 g/m^2
LV Maximal Wall Thickness [1, 5]: 19.3 ± 4.3 mm
LA Volume Index [1, 6]: 52 ± 14 mL/m^2
LV Ejection Fraction [1, 6]: 73.8 ± 5.9%
LV Mass Index [1, 6]: 103 ± 28 g/m^2
LV Maximal Wall Thickness [1, 6]: 17.8 ± 4.5 mm
LA Volume Index, Treatment Effect [1, 7]: −13 mL/m^2
LV Ejection Fraction, Treatment Effect [1, 7]: −2.6%
LV Mass Index, Treatment Effect [1, 7]: −15 g/m^2
LV Maximal Wall Thickness, Treatment Effect [1, 7]: −2.1 mm
NT-proBNP, change relative to placebo ([1]; CMR substudy patients, Week 24): −85%
echocardiographic Valsalva LVOT-G, Δ least squares mean relative to placebo ([1]; CMR substudy patients, Week 24): −50 mm Hg
echocardiographic resting LVOT-G, Δ least squares mean relative to placebo ([1]; CMR substudy patients, Week 24): −46 mm Hg
LA Volume Index [1, 8]: 40 ± 11 mL/m^2
LV Ejection Fraction [1, 8]: 74.3 ± 4.7%
LV Mass Index [1, 8]: 126 ± 22 g/m2
LV Maximal Wall Thickness [1, 8]: 20.6 ± 2.7 mm
LVOT gradient at rest [1, 8]: 55 ± 30 mmHg
LVOT gradient with Valsalva [1, 8]: 84 ± 42 mmHg
LA Volume Index [1, 9]: 39 ± 10 mL/m^2
LV Ejection Fraction [1, 9]: 68.2 ± 7.8%
LV Maximal Wall Thickness [1, 9]: 18.7 ± 3.1 mm
LVOT gradient at rest [1, 9]: 25 ± 25 mmHg
LVOT gradient with Valsalva [1, 9]: 38 ± 30 mmHg
LA Volume Index, Treatment Effect [1, 10]: −1 mL/m^2
LV Ejection Fraction, Treatment Effect [1, 10]: −3.6%
LV Mass Index, Treatment Effect [1, 10]: −10 g/m2
LV Maximal Wall Thickness, Treatment Effect [1, 10]: −1.5 mm
LVOT gradient at rest, Treatment Effect [1, 10]: −38 mmHg
LVOT gradient with Valsalva, Treatment Effect [1, 10]: −47 mmHg
CMR LV end-diastolic and end-systolic volumes ([1]; Week 24): no significant change
CMR LV mass index, Δ least squares mean relative to placebo ([1]; Week 24): −15 g/m^2
CMR left atrial volume index, Δ least squares mean relative to placebo ([1]; Week 24): −13 mL/m^2
CMR maximal LV wall thickness, Δ least squares mean relative to placebo ([1]; Week 24): −2.1 mm
CMR native Tl relaxation time, Δ least squares mean relative to placebo ([1]; Week 24): -37 ms
LV extracellular volume fraction [ECV] ([1]; Week 24): 0.7%
LV replacement fibrosis, late gadolinium enhancement [LGE] mass ([1]; Week 24): -0.7 g
LGE (% of LV mass) (CMR) ([1]; Week 24, N = 21): 1.4 % of LV mass
LGE Mass (CMR) ([1]; Week 24, N = 21): 1.5 g
Mitral Regurgitation Fraction (CMR) ([1]; Week 24, N = 21): 13%
Mitral Regurgitation Volume (CMR) ([1]; Week 24, N = 21): 12 mL
NT-proBNP, median ([1]; Week 24, N = 21): 79 pg/mL
NYHA Class I, patients ([1]; Week 24, N = 21): 57%
NYHA Class II, patients ([1]; Week 24, N = 21): 29%
NYHA Class III, patients ([1]; Week 24, N = 21): 14%
Absolute myocyte mass index (CMR) ([1]; Week 24, N = 21, mean ± SD): 75 ± 22 g/m^2
Echo LVOT Gradient at Rest ([1]; Week 24, N = 21, mean ± SD): 21 ± 18 mm Hg
Echo LVOT Gradient with Valsalva ([1]; Week 24, N = 21, mean ± SD): 35 ± 26 mm Hg
LA Volume Index (CMR) ([1]; Week 24, N = 21, mean ± SD): 52 ± 14 mL/m^2
LV Ejection Fraction (CMR) ([1]; Week 24, N = 21, mean ± SD): 73.8 ± 5.9%
LV End Diastolic Volume Index (CMR) ([1]; Week 24, N = 21, mean ± SD): 60 ± 11 mL/m^2
LV End Systolic Volume Index (CMR) ([1]; Week 24, N = 21, mean ± SD): 16.0 ± 5.1 mL/m^2
LV Extracellular Volume Fraction (CMR) ([1]; Week 24, N = 21, mean ± SD): 27.4 ± 7.1%
LV Mass Index (CMR) ([1]; Week 24, N = 21, mean ± SD): 103 ± 28 g/m^2
LV Maximal Wall Thickness (CMR) ([1]; Week 24, N = 21, mean ± SD): 17.8 ± 4.5 mm
LV Native T1 (CMR) ([1]; Week 24, N = 21, mean ± SD): 1021 ± 93 ms
LV extracellular volume mass index (CMR) ([1]; Week 24, N = 21, mean ± SD): 29 ± 12 %/g/m^2
Peak oxygen consumption, pVO2 ([1]; Week 24, N = 21, mean ± SD): 21.1 ± 4.7 mL/kg/min
Absolute myocyte mass index (CMR), Treatment Effect (95% CI) [1, 11]: −14 (−23, −4) g/m^2
Echo LVOT Gradient at Rest, Treatment Effect [1, 11]: −46 mm Hg
Echo LVOT Gradient with Valsalva, Treatment Effect [1, 11]: −50 mm Hg
LA Volume Index (CMR), Treatment Effect [1, 11]: −13 mL/m^2
LGE (% of LV mass) (CMR), Treatment Effect (95% CI) [1, 11]: −0.4 (−2.1, 1.2) % of LV mass
LGE Mass (CMR), Treatment Effect (95% CI) [1, 11]: −0.7 (−2.9, 1.6) g
LV Ejection Fraction (CMR), Treatment Effect [1, 11]: −2.6%
LV End Diastolic Volume Index (CMR), Treatment Effect [1, 11]: −1 mL/m^2
LV End Systolic Volume Index (CMR), Treatment Effect [1, 11]: 1.4 mL/m^2
LV Extracellular Volume Fraction (CMR), Treatment Effect (95% CI) [1, 11]: 0.7 (−2.2, 3.6) %
LV Mass Index (CMR), Treatment Effect [1, 11]: −15 g/m^2
LV Maximal Wall Thickness (CMR), Treatment Effect [1, 11]: −2.1 mm
LV Native T1 (CMR), Treatment Effect (95% CI) [1, 11]: −37 (−69, −5) ms
LV extracellular volume mass index (CMR), Treatment Effect [1, 11]: −3.9 %/g/m^2
Mitral Regurgitation Fraction (CMR), Treatment Effect [1, 11]: −6%
Mitral Regurgitation Volume (CMR), Treatment Effect [1, 11]: -7 mL
NT-proBNP, Treatment Effect [1, 11]: −85%
Peak oxygen consumption, pVO2, Treatment Effect [1, 11]: 1.0 mL/kg/min
Treatment Effect ≥1 NYHA Class Improvement [1, 11]: 36%
tolerability ([2]; 10 weeks treatment): well tolerated
patients achieving target goal of treatment (resting gradient <30 mmHg and post-Valsalva gradient <50 mmHg) ([2]; Cohort 1, Week 10): 78.6%
patients achieving target goal of treatment (resting gradient <30 mmHg and post-Valsalva gradient <50 mmHg) ([2]; Cohort 2, Week 10): 92.9%
LVEF after the end of treatment (reversibility) ([2]; both cohorts): returned towards baseline within two weeks
dose dependence of observed reductions in LVOT-G ([2]; human, in vivo): dose dependent
new cases of atrial fibrillation ([2]; human, in vivo): No new cases
serious adverse events attributed to aficamten ([2]; human, in vivo): No serious adverse events
time of onset of reductions in LVOT-G after initiating treatment ([2]; human, in vivo): within two weeks
